# How the values were obtained:
# [1] = system: Klebsiella pneumoniae Kl 38; assay: MIC (Table 2); conditions: KL38, read-out: Minimum Inhibitory Concentration (MIC)
# [2] = system: Escherichia coli W-677/JR 66; assay: MIC (Table 2); conditions: W677/JR66, read-out: Minimum Inhibitory Concentration (MIC)
# Proteus mirabilis Pm-5 = assay: MIC (Table 2); conditions: PM5, read-out: Minimum Inhibitory Concentration (MIC)
# [3] = system: Citrobactor freundii Ct-31; assay: MIC (Table 2); conditions: read-out: Minimum Inhibitory Concentration (MIC)
# [4] = system: Streptococcus pyogenes ATCC 10389; assay: MIC (Table 2); conditions: ATCC10389, read-out: Minimum Inhibitory Concentration (MIC)
# Proteus inconstans In-27 = assay: MIC (Table 2); assay type: cell-based; conditions: Providencia alcalifaciens, IN27, tobramycin resistant strain, read-out: Minimum Inhibitory Concentration (MIC)
# [5] = system: Escherichia coli W-677/JR 762; assay: MIC (Table 2); conditions: W677/JR762, read-out: Minimum Inhibitory Concentration (MIC)
# [6] = system: Enterobacter cloacae CI-38; assay: MIC (Table 2); conditions: CI38, read-out: Minimum Inhibitory Concentration (MIC)
# Sarcina lutea PCI 1001 = assay: MIC (Table 2); assay type: cell-based; conditions: Micrococcus luteus, PCI1001, read-out: Minimum Inhibitory Concentration (MIC)
# [7] = system: Escherichia coli W-677/JR 214; assay: MIC (Table 2); conditions: W677/JR214, read-out: Minimum Inhibitory Concentration (MIC)
# [8] = system: Serratia marcescens MA-26; assay: MIC (Table 2); conditions: MA26, read-out: Minimum Inhibitory Concentration (MIC)
# Escherichia coli TB-705 = assay: MIC (Table 2); assay type: cell-based; conditions: TB705, read-out: Minimum Inhibitory Concentration (MIC)
# [9] = system: Staphylococcus aureus 80285; assay: MIC (Table 2); conditions: Staphylococcus aureus, 80285, read-out: Minimum Inhibitory Concentration (MIC)
# [10] = system: Pseudomonas aeruginosa PP-6; assay: MIC (Table 2); conditions: PP6, read-out: Minimum Inhibitory Concentration (MIC)
# [11] = system: Pseudomonas aeruginosa PP-6; assay: MIC (Table 3); assay type: cell-based; conditions: PP6, read-out: Minimum Inhibitory Concentration (MIC)
# [12] = system: Escherichia coli W-677/JR-762; assay: MIC (Table 3); conditions: W677/JR762, read-out: Minimum Inhibitory Concentration (MIC)
# Proteus mirabilis TB-617 = assay: MIC (Table 3); assay type: cell-based; conditions: TB617, read-out: Minimum Inhibitory Concentration (MIC)
# [13] = system: Streptococcus pyogenes C-203; assay: MIC (Table 3); conditions: C203, read-out: Minimum Inhibitory Concentration (MIC)
# [14] = system: kanamycin A resistant strains; conditions: cited from earlier work
# [15] = compared with kanamycin A; cited from earlier work
Compound,MIC [1],MIC [2],MIC (Proteus mirabilis Pm-5),MIC [3],MIC [4],MIC (Proteus inconstans In-27),MIC [5],MIC [6],MIC (Sarcina lutea PCI 1001),MIC [7],MIC [8],MIC (Escherichia coli TB-705),MIC [9],MIC [10],MIC [11],MIC [12],MIC (Proteus mirabilis TB-617),MIC [13],effect against kanamycin A resistant strains [14],toxicity [15]
"NC[C@H]1O[C@H](O[C@H]2[C@H](O)[C@@H](O[C@H]3O[C@H](CO)[C@@H](O)[C@H](N)[C@H]3O)[C@H](NC(=O)C3(O)CNC3)C[C@@H]2N)[C@H](N)C[C@@H]1O [Comp. (1), 1-N-(3-hydroxyazetidine-3-carbonyl)tobramycin]",0.78 µg/mL,3.13 µg/mL,1.56 µg/mL,1.56 µg/mL,25 µg/mL,12.5 µg/mL,3.13 µg/mL,0.78 µg/mL,3.13 µg/mL,3.13 µg/mL,6.25 µg/mL,3.13 µg/mL,0.78 µg/mL,3.13 µg/mL,,,,,,
"NC[C@H]1O[C@H](O[C@H]2[C@H](O)[C@@H](O[C@H]3O[C@H](CO)[C@@H](O)[C@H](N)[C@H]3O)[C@H](NC(=O)C3(O)CNC3)C[C@@H]2N)[C@H](O)[C@@H](O)[C@@H]1O [Comp. (2), 1-N-(3-hydroxyazetidine-3-carbonyl)kanamycin A]",1.56 µg/mL,6.25 µg/mL,6.25 µg/mL,3.13 µg/mL,50 µg/mL,6.25 µg/mL,12.5 µg/mL,3.13 µg/mL,12.5 µg/mL,3.13 µg/mL,12.5 µg/mL,12.5 µg/mL,12.5 µg/mL,6.25 µg/mL,,,,,,
"NC[C@H]1O[C@H](O[C@H]2[C@H](O)[C@@H](O[C@H]3O[C@H](CO)[C@@H](O)[C@H](N)[C@H]3O)[C@H](N)C[C@@H]2N)[C@H](O)[C@@H](O)[C@@H]1O [KM-A, kanamycin A]",> 100 µg/mL,> 100 µg/mL,> 100 µg/mL,> 100 µg/mL,100 µg/mL,> 100 µg/mL,> 100 µg/mL,> 100 µg/mL,12.5 µg/mL,> 100 µg/mL,> 100 µg/mL,> 100 µg/mL,> 100 µg/mL,> 100 µg/mL,,,,,,
"NC[C@H]1O[C@H](O[C@H]2[C@H](O)[C@@H](O[C@H]3O[C@H](CO)[C@@H](O)[C@H](N)[C@H]3O)[C@H](N)C[C@@H]2N)[C@H](N)C[C@@H]1O [TOB, tobramycin]",1.56 µg/mL,25 µg/mL,12.5 µg/mL,3.13 µg/mL,25 µg/mL,12.5 µg/mL,100 µg/mL,0.78 µg/mL,12.5 µg/mL,100 µg/mL,50 µg/mL,6.25 µg/mL,0.78 µg/mL,> 100 µg/mL,100 µg/mL,25 µg/mL,6.2 µg/mL,6.2 µg/mL,,
NCC[C@H](O)C(=O)N[C@@H]1C[C@H](N)[C@@H](O[C@H]2O[C@H](CN)[C@@H](O)[C@H](O)[C@H]2O)[C@H](O)[C@H]1O[C@H]1O[C@H](CO)[C@@H](O)[C@H](N)[C@H]1O [amikacin],,,,,,,,,,,,,,,,,,,effective against kanamycin A resistant strains,approximately the same as kanamycin A

# Source: US4199570A, “1-N-Hetero containing aminoglycoside derivatives” (Shionogi & Co., Ltd., priority 1977, dated 1980)
